Reference: PubChem BioAssay (NCI)
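Cultured in 96-well plates, cells were exposed to test compound for 48 hours across five concentrations. TGI denotes the concentration required for complete inhibition of growth.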

Tests used:
Assay in all cases: NCI anticancer screen, dose series, 48 h
786-0 renal = system: 786-0 renal
A549 NSCLC = system: A549 NSCLC
ACHN renal = system: ACHN renal
BT-549 breast = system: BT-549 breast
CAKI-1 renal = system: CAKI-1 renal
CCRF-CEM leukemia = system: CCRF-CEM leukemia
COLO 205 colon = system: COLO 205 colon
DU-145 prostate = system: DU-145 prostate
EKVX NSCLC = system: EKVX NSCLC
HCC-2998 colon = system: HCC-2998 colon
HCT-116 colon = system: HCT-116 colon
HCT-15 colon = system: HCT-15 colon
HL-60(TB) leukemia = system: HL-60(TB) leukemia
HOP-62 NSCLC = system: HOP-62 NSCLC
HOP-92 NSCLC = system: HOP-92 NSCLC
HS 578T breast = system: HS 578T breast
HT29 colon = system: HT29 colon
IGROV1 ovarian = system: IGROV1 ovarian
KM12 colon = system: KM12 colon
LOX IMVI melanoma = system: LOX IMVI melanoma
M14 melanoma = system: M14 melanoma
MCF7 breast = system: MCF7 breast
MDA-MB-231 breast = system: MDA-MB-231 breast
MDA-MB-435 = system: MDA-MB-435
MDA-N = system: MDA-N
MOLT-4 leukemia = system: MOLT-4 leukemia
NCI-H226 lung = system: NCI-H226 lung
NCI-H23 lung = system: NCI-H23 lung
NCI-H460 lung = system: NCI-H460 lung
NCI-H522 lung = system: NCI-H522 lung
NCI/ADR-RES ovarian = system: NCI/ADR-RES ovarian
OVCAR-3 ovarian = system: OVCAR-3 ovarian
OVCAR-4 ovarian = system: OVCAR-4 ovarian
OVCAR-5 ovarian = system: OVCAR-5 ovarian
OVCAR-8 ovarian = system: OVCAR-8 ovarian
PC-3 prostate = system: PC-3 prostate
RXF 393 renal = system: RXF 393 renal
SF-268 CNS = system: SF-268 CNS
SF-295 CNS = system: SF-295 CNS
SF-539 CNS = system: SF-539 CNS
SK-MEL-2 melanoma = system: SK-MEL-2 melanoma
SK-MEL-28 melanoma = system: SK-MEL-28 melanoma
SK-MEL-5 melanoma = system: SK-MEL-5 melanoma
SK-OV-3 ovarian = system: SK-OV-3 ovarian
SN12C renal = system: SN12C renal
SNB-19 CNS = system: SNB-19 CNS
SNB-75 CNS = system: SNB-75 CNS
SW-620 colon = system: SW-620 colon
TK-10 renal = system: TK-10 renal
U251 CNS = system: U251 CNS
UACC-257 melanoma = system: UACC-257 melanoma
UACC-62 melanoma = system: UACC-62 melanoma
UO-31 renal = system: UO-31 renal
A498 renal = system: A498 renal
K-562 leukemia = system: K-562 leukemia
SR leukemia = system: SR leukemia
MALME-3M melanoma = system: MALME-3M melanoma
T-47D breast = system: T-47D breast

Question: `O=C1NC(=O)C(CC(C(=O)C(=O)Nc2ccccc2Cl)C(=O)c2ccc3ccccc3c2)C(=O)N1` (centres undefined) was tested. Which TGI (786-0 renal) did it give?
Answer: > 100 µM

Question: And the TGI (A549 NSCLC)?
Answer: > 100 µM

Question: And the TGI (ACHN renal)?
Answer: > 100 µM

Question: And the TGI (BT-549 breast)?
Answer: > 100 µM

Question: And the TGI (CAKI-1 renal)?
Answer: > 100 µM

Question: And the TGI (CCRF-CEM leukemia)?
Answer: > 100 µM

Question: What about the TGI (COLO 205 colon) of the same compound?
Answer: > 100 µM

Question: What about the TGI (DU-145 prostate) of the same compound?
Answer: > 100 µM

Question: What about the TGI (EKVX NSCLC) of the same compound?
Answer: > 100 µM

Question: What about the TGI (HCC-2998 colon) of the same compound?
Answer: > 100 µM

Question: What about the TGI (HCT-116 colon) of the same compound?
Answer: > 100 µM

Question: What about the TGI (HCT-15 colon) of the same compound?
Answer: > 100 µM

Question: What about the TGI (HL-60(TB) leukemia) of the same compound?
Answer: > 100 µM

Question: And the TGI (HOP-62 NSCLC)?
Answer: > 100 µM

Question: What about the TGI (HOP-92 NSCLC) of the same compound?
Answer: > 100 µM

Question: What about the TGI (HS 578T breast) of the same compound?
Answer: > 100 µM

Question: And the TGI (HT29 colon)?
Answer: > 100 µM

Question: And the TGI (IGROV1 ovarian)?
Answer: > 100 µM

Question: What about the TGI (KM12 colon) of the same compound?
Answer: > 100 µM

Question: What about the TGI (LOX IMVI melanoma) of the same compound?
Answer: > 100 µM

Question: And the TGI (M14 melanoma)?
Answer: > 100 µM

Question: What about the TGI (MCF7 breast) of the same compound?
Answer: > 100 µM

Question: And the TGI (MDA-MB-231 breast)?
Answer: > 100 µM

Question: What about the TGI (MDA-MB-435) of the same compound?
Answer: > 100 µM

Question: And the TGI (MDA-N)?
Answer: > 100 µM

Question: What about the TGI (MOLT-4 leukemia) of the same compound?
Answer: > 100 µM

Question: And the TGI (NCI-H226 lung)?
Answer: > 100 µM

Question: And the TGI (NCI-H23 lung)?
Answer: > 100 µM

Question: What about the TGI (NCI-H460 lung) of the same compound?
Answer: > 100 µM

Question: What about the TGI (NCI-H522 lung) of the same compound?
Answer: > 100 µM

Question: What about the TGI (NCI/ADR-RES ovarian) of the same compound?
Answer: > 100 µM

Question: And the TGI (OVCAR-3 ovarian)?
Answer: > 100 µM

Question: What about the TGI (OVCAR-4 ovarian) of the same compound?
Answer: > 100 µM

Question: What about the TGI (OVCAR-5 ovarian) of the same compound?
Answer: > 100 µM

Question: What about the TGI (OVCAR-8 ovarian) of the same compound?
Answer: > 100 µM

Question: What about the TGI (PC-3 prostate) of the same compound?
Answer: > 100 µM

Question: And the TGI (RXF 393 renal)?
Answer: > 100 µM

Question: What about the TGI (SF-268 CNS) of the same compound?
Answer: > 100 µM

Question: What about the TGI (SF-295 CNS) of the same compound?
Answer: > 100 µM

Question: What about the TGI (SF-539 CNS) of the same compound?
Answer: > 100 µM

Question: What about the TGI (SK-MEL-2 melanoma) of the same compound?
Answer: > 100 µM

Question: What about the TGI (SK-MEL-28 melanoma) of the same compound?
Answer: > 100 µM

Question: What about the TGI (SK-MEL-5 melanoma) of the same compound?
Answer: > 100 µM

Question: And the TGI (SK-OV-3 ovarian)?
Answer: > 100 µM

Question: What about the TGI (SN12C renal) of the same compound?
Answer: > 100 µM

Question: And the TGI (SNB-19 CNS)?
Answer: > 100 µM

Question: What about the TGI (SNB-75 CNS) of the same compound?
Answer: > 100 µM

Question: And the TGI (SW-620 colon)?
Answer: > 100 µM

Question: And the TGI (TK-10 renal)?
Answer: > 100 µM

Question: What about the TGI (U251 CNS) of the same compound?
Answer: > 100 µM

Question: What about the TGI (UACC-257 melanoma) of the same compound?
Answer: > 100 µM

Question: And the TGI (UACC-62 melanoma)?
Answer: > 100 µM

Question: What about the TGI (UO-31 renal) of the same compound?
Answer: > 100 µM

Question: With `C/C=C1/CN2CCc3c([nH]c4ccccc34)[C@@H]2C[C@@H]1Cc1[nH]ccc2c1[nH]c1cc(=O)ccc12` as the compound, how does the TGI (786-0 renal) read?
Answer: 3.19 µM

Question: What about the TGI (A498 renal) of the same compound?
Answer: 4.94 µM

Question: What about the TGI (ACHN renal) of the same compound?
Answer: > 100 µM

Question: And the TGI (BT-549 breast)?
Answer: 31.4 µM

Question: And the TGI (CAKI-1 renal)?
Answer: 3.8 µM

Question: What about the TGI (CCRF-CEM leukemia) of the same compound?
Answer: > 100 µM

Question: And the TGI (COLO 205 colon)?
Answer: > 100 µM

Question: What about the TGI (DU-145 prostate) of the same compound?
Answer: 4.26 µM

Question: What about the TGI (EKVX NSCLC) of the same compound?
Answer: 4.05 µM

Question: And the TGI (HCT-15 colon)?
Answer: 10.6 µM

Question: What about the TGI (HOP-92 NSCLC) of the same compound?
Answer: 37.6 µM

Question: And the TGI (HS 578T breast)?
Answer: 4.15 µM

Question: What about the TGI (K-562 leukemia) of the same compound?
Answer: > 100 µM

Question: And the TGI (M14 melanoma)?
Answer: 4.78 µM

Question: What about the TGI (MDA-MB-435) of the same compound?
Answer: 3.45 µM

Question: And the TGI (MDA-N)?
Answer: 4.51 µM

Question: What about the TGI (MOLT-4 leukemia) of the same compound?
Answer: > 100 µM

Question: And the TGI (NCI-H226 lung)?
Answer: > 100 µM

Question: What about the TGI (NCI-H23 lung) of the same compound?
Answer: 3.34 µM

Question: And the TGI (NCI-H460 lung)?
Answer: 64.4 µM

Question: And the TGI (NCI/ADR-RES ovarian)?
Answer: 3.49 µM

Question: What about the TGI (OVCAR-3 ovarian) of the same compound?
Answer: 5.15 µM

Question: And the TGI (OVCAR-4 ovarian)?
Answer: 3.73 µM

Question: And the TGI (OVCAR-5 ovarian)?
Answer: 8.64 µM

Question: And the TGI (OVCAR-8 ovarian)?
Answer: 3.17 µM

Question: What about the TGI (PC-3 prostate) of the same compound?
Answer: 6.88 µM

Question: And the TGI (SF-268 CNS)?
Answer: 3.33 µM

Question: What about the TGI (SK-MEL-28 melanoma) of the same compound?
Answer: 4.5 µM

Question: And the TGI (SK-OV-3 ovarian)?
Answer: 4.4 µM

Question: What about the TGI (SN12C renal) of the same compound?
Answer: 3.17 µM

Question: And the TGI (SNB-19 CNS)?
Answer: > 100 µM

Question: What about the TGI (SNB-75 CNS) of the same compound?
Answer: 3.36 µM

Question: What about the TGI (SR leukemia) of the same compound?
Answer: > 100 µM

Question: And the TGI (SW-620 colon)?
Answer: > 100 µM

Question: And the TGI (TK-10 renal)?
Answer: 4.33 µM

Question: And the TGI (UACC-62 melanoma)?
Answer: 3.62 µM

Question: What about the TGI (UO-31 renal) of the same compound?
Answer: 2.94 µM

Question: For `CC(=O)Nc1ccc2c3c(cc(O)c2c1)N(C(=O)CCCCCC(=O)N1CC(CCl)c2c1cc(O)c1cc(NC(C)=O)ccc21)CC3CCl` (centres undefined), which TGI (786-0 renal) is on record?
Answer: 0.0412 µM

Question: And the TGI (BT-549 breast)?
Answer: 0.0736 µM

Question: What about the TGI (CAKI-1 renal) of the same compound?
Answer: 0.918 µM

Question: What about the TGI (DU-145 prostate) of the same compound?
Answer: 0.0392 µM

Question: What about the TGI (EKVX NSCLC) of the same compound?
Answer: 0.803 µM

Question: What about the TGI (HCT-15 colon) of the same compound?
Answer: 14.2 µM

Question: What about the TGI (HL-60(TB) leukemia) of the same compound?
Answer: 26 µM

Question: What about the TGI (HOP-62 NSCLC) of the same compound?
Answer: > 100 µM

Question: And the TGI (HOP-92 NSCLC)?
Answer: 0.0392 µM

Question: What about the TGI (HT29 colon) of the same compound?
Answer: > 33.3 µM

Question: What about the TGI (IGROV1 ovarian) of the same compound?
Answer: > 87.2 µM

Question: What about the TGI (K-562 leukemia) of the same compound?
Answer: > 100 µM

Question: And the TGI (KM12 colon)?
Answer: 0.636 µM

Question: What about the TGI (LOX IMVI melanoma) of the same compound?
Answer: > 100 µM

Question: And the TGI (M14 melanoma)?
Answer: 0.125 µM

Question: What about the TGI (MALME-3M melanoma) of the same compound?
Answer: 0.0654 µM

Question: What about the TGI (MDA-MB-231 breast) of the same compound?
Answer: 0.0503 µM

Question: What about the TGI (MDA-MB-435) of the same compound?
Answer: 0.187 µM

Question: And the TGI (MDA-N)?
Answer: 0.085 µM

Question: What about the TGI (NCI-H226 lung) of the same compound?
Answer: 0.0915 µM

Question: What about the TGI (NCI-H460 lung) of the same compound?
Answer: > 100 µM

Question: And the TGI (NCI/ADR-RES ovarian)?
Answer: > 100 µM

Question: What about the TGI (OVCAR-5 ovarian) of the same compound?
Answer: 13.3 µM

Question: And the TGI (PC-3 prostate)?
Answer: 1.8 µM

Question: And the TGI (SF-295 CNS)?
Answer: > 100 µM

Question: What about the TGI (SF-539 CNS) of the same compound?
Answer: 0.205 µM

Question: What about the TGI (SK-MEL-28 melanoma) of the same compound?
Answer: > 100 µM

Question: And the TGI (SK-MEL-5 melanoma)?
Answer: 0.0198 µM

Question: And the TGI (SK-OV-3 ovarian)?
Answer: > 100 µM

Question: What about the TGI (SNB-19 CNS) of the same compound?
Answer: > 100 µM

Question: And the TGI (SW-620 colon)?
Answer: > 100 µM

Question: And the TGI (T-47D breast)?
Answer: 0.02 µM

Question: What about the TGI (TK-10 renal) of the same compound?
Answer: > 100 µM

Question: And the TGI (UACC-62 melanoma)?
Answer: 0.0248 µM
